Our source for the IC50 values is ChEMBL document CHEMBL5576095, “Research progress of multi-target HDAC inhibitors blocking the BRD4-LIFR-JAK1-STAT3 signaling pathway in the treatment of cancer” (Bioorg Med Chem, 2024).

One assay has as its target Histone deacetylase 1 (Homo sapiens, UniProt Q13547). Briefly: Inhibition of HDAC1 (unknown origin).
Assay [1] can be described thus: Inhibition of CD4 (unknown origin).
The target in assay [2] is Tyrosine-protein kinase JAK1 (Homo sapiens, UniProt P23458). In words: Inhibition of JAK1 (unknown origin).
A further assay concerns MV4-11. Briefly: Antiproliferative activity against human MV4-11 cells assessed as reduction in cell growth. The assay is classed as functional, cell-based.
Assay [3] has as its system KATO III stomach cancer cell line. Briefly: cells. As to conditions: Homo sapiens.
Description: Antiproliferative activity against human KATO III stomach cancer cell line

As a reminder, the IC50 is the concentration that gives 50% inhibition.

Tyrosine-protein kinase JAK1, sequence (P23458 whole entry): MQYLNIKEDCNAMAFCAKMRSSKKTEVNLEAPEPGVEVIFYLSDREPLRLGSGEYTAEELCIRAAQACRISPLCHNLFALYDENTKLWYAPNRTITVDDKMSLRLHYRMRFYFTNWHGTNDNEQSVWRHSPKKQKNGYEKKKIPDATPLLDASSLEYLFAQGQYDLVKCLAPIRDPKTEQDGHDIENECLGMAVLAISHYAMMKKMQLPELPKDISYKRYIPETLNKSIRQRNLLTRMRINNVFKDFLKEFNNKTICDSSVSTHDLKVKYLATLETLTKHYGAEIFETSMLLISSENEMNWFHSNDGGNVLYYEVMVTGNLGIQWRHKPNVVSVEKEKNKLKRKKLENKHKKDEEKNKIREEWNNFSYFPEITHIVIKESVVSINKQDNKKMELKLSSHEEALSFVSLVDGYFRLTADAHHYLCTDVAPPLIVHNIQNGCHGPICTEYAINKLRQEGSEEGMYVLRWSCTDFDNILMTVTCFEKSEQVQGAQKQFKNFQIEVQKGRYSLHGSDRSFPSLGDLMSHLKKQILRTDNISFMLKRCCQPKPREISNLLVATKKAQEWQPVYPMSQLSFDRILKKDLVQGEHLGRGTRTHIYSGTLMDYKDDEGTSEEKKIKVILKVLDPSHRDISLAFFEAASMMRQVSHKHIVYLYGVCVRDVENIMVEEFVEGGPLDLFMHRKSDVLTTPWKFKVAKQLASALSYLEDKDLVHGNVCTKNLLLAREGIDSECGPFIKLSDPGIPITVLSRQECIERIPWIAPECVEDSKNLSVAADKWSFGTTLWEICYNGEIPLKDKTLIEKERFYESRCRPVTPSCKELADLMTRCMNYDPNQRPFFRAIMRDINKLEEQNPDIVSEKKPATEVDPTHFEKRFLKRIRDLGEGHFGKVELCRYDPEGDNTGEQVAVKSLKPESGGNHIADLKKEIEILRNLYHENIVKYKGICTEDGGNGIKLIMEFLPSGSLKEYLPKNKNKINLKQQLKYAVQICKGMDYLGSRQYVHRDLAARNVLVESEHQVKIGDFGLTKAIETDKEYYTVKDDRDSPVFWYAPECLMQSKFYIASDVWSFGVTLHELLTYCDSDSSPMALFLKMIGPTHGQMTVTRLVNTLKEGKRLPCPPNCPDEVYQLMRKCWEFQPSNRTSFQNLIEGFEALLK
Histone deacetylase 1, sequence (Q13547 whole entry): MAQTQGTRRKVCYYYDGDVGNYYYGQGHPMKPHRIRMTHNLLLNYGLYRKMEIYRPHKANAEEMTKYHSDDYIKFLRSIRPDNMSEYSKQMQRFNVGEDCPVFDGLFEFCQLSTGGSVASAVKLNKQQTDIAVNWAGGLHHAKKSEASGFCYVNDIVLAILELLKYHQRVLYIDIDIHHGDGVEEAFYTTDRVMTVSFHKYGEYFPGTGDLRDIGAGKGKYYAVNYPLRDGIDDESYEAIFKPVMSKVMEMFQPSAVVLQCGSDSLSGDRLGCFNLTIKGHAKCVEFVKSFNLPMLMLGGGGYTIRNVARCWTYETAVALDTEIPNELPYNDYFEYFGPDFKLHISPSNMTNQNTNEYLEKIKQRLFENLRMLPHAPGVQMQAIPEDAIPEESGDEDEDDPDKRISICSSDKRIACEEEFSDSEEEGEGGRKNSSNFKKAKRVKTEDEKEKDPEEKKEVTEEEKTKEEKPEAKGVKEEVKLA

In the case of `CCn1c(C)nc2c(F)cc(-c3nc(Nc4ccc(CNC(=O)CCCCCCC(=O)NO)cc4)ncc3F)cc21`, the IC50 on Histone deacetylase 1 came out at 26 nM; in assay [1] it was 1.2 nM; in assay [2], 22 nM.
For the compound `CCNC(=O)c1cc2c(-c3cc(C(C)(C)O)ccc3Oc3c(C)cc(F)cc3C)cn(C)c(=O)c2[nH]1` [ABBV-744], the IC50 in the assay with MV4-11 was determined as 40 nM.
For the compound `COc1cc(OC)cc(N(CCNC(C)C)c2ccc3ncc(-c4cnn(C)c4)nc3c2)c1` [ERDAFITINIB], in assay [3], the IC50 turned out to be 4 nM.
